Measured values from article PMC3349777 (2012).
pKi: −log10 of the molar value.

Experiments:
[1] = molecular target: T1, human squalene synthase (HsSQS) (Homo sapiens, UniProt P37268); experiment: enzyme inhibition assay, recombinant SQS; format: biochemical
T1 sequence (P37268 1-417): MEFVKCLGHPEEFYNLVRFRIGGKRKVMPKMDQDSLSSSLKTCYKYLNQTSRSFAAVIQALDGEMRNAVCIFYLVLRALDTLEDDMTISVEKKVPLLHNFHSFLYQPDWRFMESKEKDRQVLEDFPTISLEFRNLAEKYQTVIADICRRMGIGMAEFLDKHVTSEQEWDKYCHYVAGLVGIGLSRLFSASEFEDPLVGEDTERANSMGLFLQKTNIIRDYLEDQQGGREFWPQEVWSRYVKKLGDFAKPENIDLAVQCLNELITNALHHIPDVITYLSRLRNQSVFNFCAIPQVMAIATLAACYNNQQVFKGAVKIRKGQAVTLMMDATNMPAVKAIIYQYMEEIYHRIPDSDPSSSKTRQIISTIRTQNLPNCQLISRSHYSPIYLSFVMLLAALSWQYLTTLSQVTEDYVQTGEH

[2] = molecular target: Trypanosoma cruzi squalene synthase (TcSQS) (Trypanosoma cruzi, UniProt Q4CWB4); experiment: enzyme inhibition assay, recombinant SQS; format: biochemical

For `CC(C)=CCC/C(C)=C\CNCCNC1C2CC3CC(C2)CC1C3` (centres unmarked) [compound 3, SQ-109], the pKi [1] was 6.13 and the pKi [2] was 5.92.
